Drawing on patent publication US8580832B2, “Substituted phenoxy aminothiazolones as estrogen related receptor-α modulators” (Janssen Pharmaceutica N.V., priority 2007, dated 2013), this text covers EC50 for 27 compounds.

For orientation: EC50 means the concentration needed to bring the measured effect to its halfway point. High values mean lower potency in that assay, low ones higher potency in that assay.

SMILES strings stand for the structures.

For the experiment, the target named is T1, ERR1 (also known as ERR-α or ERR-1) (Homo sapiens, UniProt P11474).
T1 construct: the ^6His-tagged-ERR1 LBD
T1 sequence (P11474 193-421 limits assumed): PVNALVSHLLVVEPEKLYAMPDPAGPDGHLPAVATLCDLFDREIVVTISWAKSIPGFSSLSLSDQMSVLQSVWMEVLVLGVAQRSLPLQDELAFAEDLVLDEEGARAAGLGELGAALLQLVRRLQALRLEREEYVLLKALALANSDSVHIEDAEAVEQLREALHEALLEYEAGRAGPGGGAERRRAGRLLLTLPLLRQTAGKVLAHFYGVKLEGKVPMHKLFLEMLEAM
In words: TR-FRET assay: disruption of co-activator peptide binding to ERR1 LBD. The format is biochemical. To be noted: 6His-tagged ERR1 LBD 6 nM, GST-SRC-2 peptide 6 nM, 25° C., 4-18 hours; average of 3 independent experiments. As for the experimental part: Time-Resolved Fluorescence Resonance Energy Transfer (TR-FRET) experiments were performed to examine the functional response of ERR1 (also known as ERR-α or ERR-1) ligands. The TR-FRET assay described herein relied on the conformation of ERR1 for binding to a co-activator peptide: when a test compound binds to ERR1 and alters its conformation, it can disrupt the binding of the co-activator peptide. The components of this homogeneous secondary assay included: the ^6His-tagged-ERR1 LBD, a GST-labeled-hSRC2 co-activator polypeptide and a fluorescent donor/acceptor pair from CIS bio international htrf/bioassays (Bedford, Mass.) using both an α-GST Europium Cryptate (Eu) label and an α^6His-XL665 (allophycocyanin) fluorophore.
For TR-FRET measurements, the reaction was buffered in 25 mM Tris pH 8, 2.5 mM Hepes, 20 mM KCl, 1 mM DTT, and 0.05 mg/mL BSA (-lipids). […] Reactions were allowed to reach equilibrium at 25° C. for 4-18 hours before collecting data on the Analyst from LJL Biosystems (Molecular Devices Sunnyvale, Calif.). […] Dose response curves were fitted using a hyperbolic equation and the data reported is the average of 3 independent experiments.
(In general: Time-resolved FRET reads energy transfer from a long-lived donor to a nearby acceptor.)
Regarding `N#Cc1ccc(Oc2ccc(/C=C3\SC(NC4CCN(CCO)CC4)=NC3=O)cc2F)c(C(F)(F)F)c1` [Example 112, 4-(2-Fluoro-4-{2-[1-(2-hydroxy-ethyl)-piperidin-4-ylamino]-4-oxo-4H-thiazol-5-ylidenemethyl}-phenoxy)-3-trifluoromethyl-benzonitrile], the EC50 stood at 26 nM.

The compound `COc1cc(/C=C2\SC(NCCCN3CCOCC3)=NC2=O)ccc1Oc1ccc(C#N)cc1C(F)(F)F` [Example 27, 4-{2-Methoxy-4-[2-(3-morpholin-4-yl-propylamino)-4-oxo-4H-thiazol-5-ylidenemethyl]-phenoxy}-3-trifluoromethyl-benzonitrile] gave an EC50 of 11 nM.

With `COc1cc(/C=C2\SC(NCCc3cccnc3)=NC2=O)ccc1Oc1ccc(C#N)cc1C(F)(F)F` [Example 29, 4-{2-Methoxy-4-[4-oxo-2-(2-pyridin-3-yl-ethylamino)-4H-thiazol-5-ylidenemethyl]-phenoxy}-3-trifluoromethyl-benzonitrile], the EC50 worked out at 12 nM. This EC50 and that of the compound before are within 1.5-fold of each other.

Turning to `N#Cc1ccc(Oc2ccc(/C=C3\SC(NCCCN4CCOCC4)=NC3=O)cc2F)c(C(F)(F)F)c1` [Example 49, 4-{2-Fluoro-4-[2-(3-morpholin-4-yl-propylamino)-4-oxo-4H-thiazol-5-ylidenemethyl]-phenoxy}-3-trifluoromethyl-benzonitrile], the EC50 was determined as 10 nM.

`N#Cc1ccc(Oc2ccc(/C=C3\SC(N4CCCC(O)C4)=NC3=O)cc2F)c(C(F)(F)F)c1` (stereo not drawn) [Example 103, 4-{2-Fluoro-4-[2-(3-hydroxy-piperidin-1-yl)-4-oxo-4H-thiazol-5-ylidenemethyl]-phenoxy}-3-trifluoromethyl-benzonitrile] gave an EC50 of 47 nM. This EC50 lies about 4.7-fold higher than the previous one.

For `COc1cc(/C=C2\SC(N(C)CC(O)CO)=NC2=O)ccc1Oc1ccc(C#N)cc1Cl` (stereo not drawn) [Example 65, 3-Chloro-4-(4-{2-[(2,3-dihydroxy-propyl)-methyl-amino]-4-oxo-4H-thiazol-5-ylidenemethyl}-2-methoxy-phenoxy)-benzonitrile], the EC50 was determined as 89 nM.

In turn, `N#Cc1ccc(Oc2ccc(/C=C3\SC(NC4CC4)=NC3=O)cc2F)c(C(F)(F)F)c1` [Compound 10, 4-[4-(2-Cyclopropylamino-4-oxo-4H-thiazol-5-ylidenemethyl)-2-fluoro-phenoxy]-3-trifluoromethyl-benzonitrile] came in with an EC50 of 52 nM.

In turn, `COc1cc(/C=C2\SC(N3CCN(C(C)=O)CC3)=NC2=O)ccc1Oc1ccc(C#N)cc1C(F)(F)F` [Example 31, 4-{4-[2-(4-Acetyl-piperazin-1-yl)-4-oxo-4H-thiazol-5-ylidenemethyl]-2-methoxy-phenoxy}-3-trifluoromethyl-benzonitrile] registered an EC50 of 6 nM.

`COc1cc(/C=C2\SC(NC3CC3)=NC2=O)ccc1Oc1ccc(C#N)cc1C(F)(F)F` [Compound 9, 4-[4-(2-Cyclopropylamino-4-oxo-4H-thiazol-5-ylidenemethyl)-2-methoxy-phenoxy]-3-trifluoromethyl-benzonitrile] had an EC50 of 15 nM.

As to `COc1cc(/C=C2\SC(N3CCNC(=O)C3)=NC2=O)ccc1Oc1ccc(C#N)cc1Cl` [Example 64, 3-Chloro-4-{2-methoxy-4-[4-oxo-2-(3-oxo-piperazin-1-yl)-4H-thiazol-5-ylidenemethyl]-phenoxy}-benzonitrile], the EC50 stood at 44 nM.

For the compound `COc1cc(/C=C2\SC(NCC(F)F)=NC2=O)ccc1Oc1ccc(C#N)cc1C(F)(F)F` [Example 92, 4-{4-[2-(2,2-Difluoro-ethylamino)-4-oxo-4H-thiazol-5-ylidenemethyl]-2-methoxy-phenoxy}-3-trifluoromethyl-benzonitrile], a half-maximal response (EC50) required 6 nM.

For the compound `COc1cc(/C=C2\SC(N(C)CC(O)CO)=NC2=O)ccc1Oc1ccc(Cl)cc1C(F)(F)F` (stereo not drawn) [Example 62, 5-[4-(4-Chloro-2-trifluoromethyl-phenoxy)-3-methoxy-benzylidene]-2-[(2,3-dihydroxy-propyl)-methyl-amino]-thiazol-4-one], a half-maximal effect (EC50) was put at 3 nM.

As to `COC(=O)CCCNC1=NC(=O)/C(=C/c2ccc(Oc3ccc(C#N)cc3C(F)(F)F)c(OC)c2)S1` [Example 82, 4-{5-[4-(4-Cyano-2-trifluoromethyl-phenoxy)-3-methoxy-benzylidene]-4-oxo-4,5-dihydro-thiazol-2-ylamino}-butyric acid methyl ester], the EC50 worked out at 55 nM.

`N#Cc1ccc(Oc2ccc(/C=C3\SC(N)=NC3=O)cc2Cl)c(C(F)(F)F)c1` [Compound 3, 4-[2-Chloro-4-(2-imino-4-oxo-thiazolidin-5-ylidenemethyl)-phenoxy]-3-trifluoromethyl-benzonitrile] displayed an EC50 of 87 nM.

Take `CCOc1cc(/C=C2\SC(N3CC(C(=O)O)C3)=NC2=O)ccc1Oc1ccc(C#N)cc1C(F)(F)F` [Example 55, 1-{5-[4-(4-Cyano-2-trifluoromethyl-phenoxy)-3-ethoxy-benzylidene]-4-oxo-4,5-dihydro-thiazol-2-yl}-azetidine-3-carboxylic acid]: the EC50 is 16 nM.

The compound `COc1cc(/C=C2\SC(N(CCO)CCO)=NC2=O)ccc1Oc1ccc(C#N)cc1C(F)(F)F` [Compound 12, 4-(4-{2-[Bis-(2-hydroxy-ethyl)-amino]-4-oxo-4H-thiazol-5-ylidenemethyl}-2-methoxy-phenoxy)-3-trifluoromethyl-benzonitrile] displayed an EC50 of 25 nM.

`COc1cc(/C=C2\SC(NCC(O)CN)=NC2=O)ccc1Oc1ccc(C#N)cc1C(F)(F)F` (stereo not drawn) [Example 95, 4-{4-[2-(3-Amino-2-hydroxy-propylamino)-4-oxo-4H-thiazol-5-ylidenemethyl]-2-methoxy-phenoxy}-3-trifluoromethyl-benzonitrile] registered an EC50 of 89 nM.

On to `COc1cc(/C=C2\SC(N(C)CC(O)CO)=NC2=O)ccc1Oc1ccc(C#N)cc1C(F)(F)F` (stereo not drawn) [Compound 23, 4-(4-{2-[(2,3-Dihydroxy-propyl)-methyl-amino]-4-oxo-4H-thiazol-5-ylidenemethyl}-2-methoxy-phenoxy)-3-trifluoromethyl-benzonitrile], for which the concentration for a half-maximal effect (EC50) was 9 nM.

`N#Cc1ccc(Oc2ccc(/C=C3\SC(NCCCN4CCCC4=O)=NC3=O)cc2F)c(C(F)(F)F)c1` [Example 51, 4-(2-Fluoro-4-{4-oxo-2-[3-(2-oxo-pyrrolidin-1-yl)-propylamino]-4H-thiazol-5-ylidenemethyl}-phenoxy)-3-trifluoromethyl-benzonitrile]: a half-maximal effect (EC50) was put at 29 nM.

`COc1cc(/C=C2\SC(N3CCN(C)C(=O)C3)=NC2=O)ccc1Oc1ccc(C#N)cc1C(F)(F)F` [Example 94, 4-{2-Methoxy-4-[2-(4-methyl-3-oxo-piperazin-1-yl)-4-oxo-4H-thiazol-5-ylidenemethyl]-phenoxy}-3-trifluoromethyl-benzonitrile]: the EC50 worked out at 8 nM.

Compound `COc1cc(/C=C2\SC(NCCNC(N)=O)=NC2=O)ccc1Oc1ccc(C#N)cc1C(F)(F)F` [Example 74, (2-{5-[4-(4-Cyano-2-trifluoromethyl-phenoxy)-3-methoxy-benzylidene]-4-oxo-4,5-dihydro-thiazol-2-ylamino}-ethyl)-urea] yielded an EC50 of 17 nM.

Turning to `COC(=O)c1ccc(Oc2ccc(/C=C3\SC(N4CCNC(=O)C4)=NC3=O)cc2OC)c(C(F)(F)F)c1` [Example 54, 4-{2-Methoxy-4-[4-oxo-2-(3-oxo-piperazin-1-yl)-4H-thiazol-5-ylidenemethyl]-phenoxy}-3-trifluoromethyl-benzoic acid methyl ester], the EC50 was determined as 74 nM. This EC50 lies about 4.4-fold higher than the previous one.

With `COc1cc(/C=C2\SC(NC[C@H](O)CO)=NC2=O)ccc1Oc1ccc(C#N)cc1C(F)(F)F` [Example 35, 4-{4-[2-(2S,3-Dihydroxy-propylamino)-4-oxo-4H-thiazol-5-ylidenemethyl]-2-methoxy-phenoxy}-3-trifluoromethyl-benzonitrile], the EC50 came to 13 nM.

Consider `COc1cc(/C=C2\SC(N3CCN(C)CC3)=NC2=O)ccc1Oc1ccc(C#N)cc1C(F)(F)F` [Compound 7, 4-{2-Methoxy-4-[2-(4-methyl-piperazin-1-yl)-4-oxo-4H-thiazol-5-ylidenemethyl]-phenoxy}-3-trifluoromethyl-benzonitrile], for which the EC50 amounted to 11 nM.

For `N#Cc1ccc(Oc2ccc(/C=C3\SC(NCc4nnn[nH]4)=NC3=O)cc2F)c(C(F)(F)F)c1` [Example 108, 4-(2-Fluoro-4-{4-oxo-2-[(1H-tetrazol-5-ylmethyl)-amino]-4H-thiazol-5-ylidenemethyl}-phenoxy)-3-trifluoromethyl-benzonitrile], a half-maximal response (EC50) required 10 nM. This EC50 and that of the compound before are within 1.5-fold of each other.

Consider `COc1cc(/C=C2\SC(NCc3ccccn3)=NC2=O)ccc1Oc1ccc(C#N)cc1C(F)(F)F` [Compound 17, 4-(2-Methoxy-4-{4-oxo-2-[(pyridin-2-ylmethyl)-amino]-4H-thiazol-5-ylidenemethyl}-phenoxy)-3-trifluoromethyl-benzonitrile], for which the response was half-maximal at 29 nM (EC50).

Take `COc1cc(/C=C2\SC(NCCN3CCOCC3)=NC2=O)ccc1Oc1ccc(C#N)cc1C(F)(F)F` [Example 33, 4-{2-Methoxy-4-[2-(2-morpholin-4-yl-ethylamino)-4-oxo-4H-thiazol-5-ylidenemethyl]-phenoxy}-3-trifluoromethyl-benzonitrile]: a half-maximal response (EC50) required 15 nM.
